Patent US8460689B2, “Oral care method and kit” (3M Innovative Properties Company, priority 2009, dated 2013)

Key:
[1] = test system: MRSA (methicillin-resistant Staphylococcus aureus), ATCC 33592; experiment: Test Method B2 - Second Antimicrobial Efficacy Testing; format: cell-based; conditions: 4 minutes
Procedure: A 0.22% wt/wt solution of CHG was prepared at a pH of 6. All pH adjustments were made using either gluconic acid or sodium hydroxide. Each of the above excipient solutions (5 mL) were mixed with an equal amount (5 mL) of CHG solution (0.22% wt/wt). The mixtures were allowed to stand for 15 minutes at ambient conditions, along with a control CHG solution. All of these samples were centrifuged at 14,000 g for 15 minutes. After centrifugation, supernatant was carefully transferred to a new vial and submitted for Antimicrobial Efficacy testing (TEST METHOD B2) and HPLC testing (TEST METHOD C2), see below.
For Test Method B2 the above Test Method B was followed, with the following changes: • 1. Bacteria was MRSA (methicillin-resistant Staphylococcus aureus), ATCC 33592, instead of P. aeruginosa. • 2. Inoculum level was approximately 6.2 logs, instead of 5.8 logs. • 3. Incubation time with MRSA was 4 minutes, instead of 2.5 minutes. • 4. Neutralizer was Neutralizing Buffer, instead of D/E Neutralizing Broth. • 5. Incubation of the Petrifilm plates was 38 hours, instead of 43 hours.

[2] = Evaluation of Precipitate Formation with CHG; format: physicochemical; conditions: 1:1 mixture of excipient solution with 3.72% CHG, visual within 30 minutes; for Precipitation at Low pH: low pH per sample
Procedure: It is thought that some excipients (inactives) may form a CHG complex, which is visible as a precipitate. Thus, CHG which complexes with an excipient, forming a precipitate would not be available for antimicrobial efficacy. The purpose of the precipitation formation testing was to observe the potential of an excipient to form a precipitates with CHG under the following test conditions.
Sample excipient solutions were prepared with distilled water to various concentrations of excipients according to Tables 12-16, below. The pH of the solutions was then adjusted to both a low pH and a high pH using either gluconic acid or NaOH. […] After combining the CHG solution with the excipient solution, the vial of the mixture was briefly swirled to mix. The mixtures were visually assessed for the presence/formation of a precipitate within 30 minutes. The results are shown in Tables P1-P5, where “Y” means precipitate was observed; “N” means no precipitate was observed; “*1” means the mixture could not be tested because a gel-like mass was formed when adding gluconic acid to reduce the pH down; and “*2” means the mixture could not be tested because it started to thicken when adding NaOH to raise the pH.

| Compound | Log Reduction of MRSA ([1]; CHG 0.22 wt % control, excipient 0.0 wt %) | Precipitation at High pH [2] | Precipitation at Low pH [2] | Log Reduction of MRSA ([1]; supernatant of 0.50 wt % excipient solution mixed with equal amount of 0.22 wt % CHG) |
| --- | --- | --- | --- | --- |
| N=C(NCCCCCCNC(=N)NC(=N)Nc1ccc(Cl)cc1)NC(=N)Nc1ccc(Cl)cc1.O=C(O)[C@H](O)[C@@H](O)[C@H](O)[C@H](O)CO.O=C(O)[C@H](O)[C@@H](O)[C@H](O)[C@H](O)CO [CHG Control, 1,11-hexamethylene bis[5-(p-chlorophenyl)biguanide]di-D-gluconate, reference compound] | 3.0 | – | – | – |
| O=C1NS(=O)(=O)c2ccccc21.[Na] [P1, Sodium Saccharin] | – | Y | Y | – |
| C/C=C/C=C/C(=O)[O-].[K+] [P4, Potassium Sorbate] | – | Y | – | – |
| O=C([O-])c1ccccc1.[Na+] [P7, Sodium Benzoate] | – | Y | Y | – |
| [Cl-].[K+] [P10, KCL] | – | Y | Y | – |
| [Cl-].[K+] [P11, KCL] | – | Y | Y | – |
| [Cl-].[K+] [P12, KCL] | – | N | N | – |
| [Cl-].[Na+] [P13, NaCl] | – | Y | Y | – |
| O=P(O)(O)O [P16, H3PO4] | – | Y | Y | – |
| O=C(O)CC(O)(CC(=O)O)C(=O)O [P19, Citric Acid] | – | Y | Y | – |
| O=C1[N-]S(=O)(=O)c2ccccc21.[Na+] [Sodium Saccharin, Benzoic Sulphimide Sodium Salt] | – | – | – | 0.0 |
